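How tested: cells in 96-well plates exposed to compound for 48 hours at five concentrations. TGI marks complete inhibition of growth.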
What was measured:
Assay in all cases: NCI tumour cell line growth inhibition, 48 h
[1] = system: 786-0 renal
[2] = system: BT-549 breast
[3] = system: HOP-92 NSCLC
[4] = system: HS 578T breast
[5] = system: KM12 colon
[6] = system: MDA-MB-435
[7] = system: NCI-H23 lung
[8] = system: NCI-H460 lung
[9] = system: NCI-H522 lung
[10] = system: OVCAR-4 ovarian
[11] = system: OVCAR-8 ovarian
[12] = system: SF-295 CNS
[13] = system: SF-539 CNS
[14] = system: SK-MEL-28 melanoma
[15] = system: SW-620 colon
[16] = system: UACC-257 melanoma
[17] = system: UO-31 renal
[18] = system: SNB-75 CNS
[19] = system: RPMI-8226 leukemia

| SMILES | TGI [1] [µM] | TGI [2] [µM] | TGI [3] [µM] | TGI [4] [µM] | TGI [5] [µM] | TGI [6] [µM] | TGI [7] [µM] | TGI [8] [µM] | TGI [9] [µM] | TGI [10] [µM] | TGI [11] [µM] | TGI [12] [µM] | TGI [13] [µM] | TGI [14] [µM] | TGI [15] [µM] | TGI [16] [µM] | TGI [17] [µM] | TGI [18] [µM] | TGI [19] [µM] |
| --- | --- | --- | --- | --- | --- | --- | --- | --- | --- | --- | --- | --- | --- | --- | --- | --- | --- | --- | --- |
| N#CC(N)c1ccc(OCCCCCCCCCCOc2ccc(C(N)C#N)cc2)cc1 (centres undefined) | > 100 | > 100 | > 100 | > 100 | > 100 | > 100 | > 100 | > 100 | > 100 | > 100 | > 100 | > 100 | > 100 | > 100 | > 100 | > 100 | > 100 |  |  |
| COc1cc2nc(Nc3cccc(Br)c3)nc(Nc3cccc(Br)c3)c2cc1OC | 31 | 30.7 | 29.5 | 38.5 | 36.7 | 36 | 33.3 | 51.8 | 32.4 | 30.9 | 31.6 | 32.7 |  | 33.5 | 45.8 |  | 29.4 | 31.8 |  |
| Cc1ccc2c(=O)cc(Cc3cccs3)[nH]c2n1 | > 100 | > 100 |  | > 100 | > 100 | > 100 | > 100 |  | > 100 | > 100 | > 100 | > 100 |  | > 100 | > 100 | > 100 | > 100 | > 100 | > 100 |
| CCOC(=O)CCC(NC(=O)Cc1ccc(Nc2nc3ccccc3nc2-c2cccs2)cc1)C(=O)OCC (centres undefined) | > 100 | > 100 |  | > 100 | > 100 | > 100 | > 100 | > 100 | > 100 | > 100 |  | > 100 | > 100 | > 100 | > 100 | > 100 | > 100 | > 100 | > 100 |
| Cn1c2ccccc2n2c3ncccc3c(=NCCCC(=O)O)c(C#N)c12 | > 100 | > 100 |  | > 100 | > 100 | > 100 | > 100 | > 100 | > 100 | > 100 | > 100 | > 100 |  | > 100 | > 100 |  | > 100 | > 100 | > 100 |
| O=C1NC(=S)N/C1=C\c1cc2c(=O)c3ccccc3sc2s1 | > 100 | > 100 |  | > 100 | > 100 | > 100 | > 100 | > 100 | > 100 | > 100 | > 100 | > 100 |  | > 100 | > 100 | > 100 | > 100 | 72 | > 100 |
| O=C(Cn1cc(-c2ccccc2)nn1)NC1CCCCC1 | > 100 | > 100 | > 100 |  | > 100 | > 100 | > 100 | > 100 | > 100 | > 100 | > 100 | > 100 | > 100 | > 100 | > 100 | > 100 |  | > 100 | > 100 |
| COc1ccc(N=C2S/C(=N\C(=Nc3ccccc3)SCc3ccccc3)N(c3ccccc3)C2=Nc2ccc(OC)cc2)cc1 | > 100 | > 100 | > 100 | > 100 | > 100 |  | > 100 |  |  |  | > 100 |  |  | > 100 | > 100 | > 100 | > 100 | > 100 | > 100 |
| CCN(CC)CCC(=O)c1ccc(Sc2ccc(F)cc2)cc1 | 23.6 | 31.6 |  | 30.8 | 30.6 | 32.4 | 33.9 | 41.1 | 35.8 | 42.9 | 48.1 | 35.1 | 32.9 | 34.3 | 41.2 | 31 | 31.9 | 32.2 | 9.74 |
| O=c1[nH]nc(Cc2ccc(Cl)cc2)n1/N=C/c1ccco1 | > 100 | > 100 | > 100 |  | > 100 | > 100 | > 100 | > 100 | > 100 | > 100 | > 100 | > 100 | 90.5 | > 100 | > 100 | > 100 | > 100 | 49.7 | > 100 |
| c1cnn(C23C4C5C6C4C2C6C53)c1 (centres undefined) | > 100 | > 100 |  | > 100 | > 100 | > 100 | > 100 | > 100 | > 100 |  | > 100 | > 100 | > 100 | > 100 | > 100 | > 100 |  | > 100 | > 100 |
| Cc1ccc(/C=N/n2c(Cc3ccccc3)n[nH]c2=O)cc1 | > 100 | > 100 | 83.4 | > 100 | > 100 |  | > 100 | > 100 | > 100 | > 100 | > 100 | > 100 | > 100 | > 100 | > 100 | > 100 | > 100 | > 100 | > 100 |

Source: PubChem BioAssay (NCI)
